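Assay format: 96-well plates, 48-hour exposure. At the GI50, growth is halved.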 Calls of active or inactive are those of the source. Rule as the data show it: active = GI50 up to about 1.1 µM and inactive = higher.
What was measured:
Assay in all cases: DTP human tumour cell line panel, 48 h
HOP-18 = tested on: HOP-18
DLD-1 = tested on: DLD-1
KM-20L2 = tested on: KM-20L2
RXF 631 = tested on: RXF 631
SNB-78 = tested on: SNB-78
M19-MEL = tested on: M19-MEL
LXFL 529 = tested on: LXFL 529
DMS-114 = tested on: DMS-114
XF498 = tested on: XF498

Measured: GI50

CCc1ccccc1NC(=O)C(=O)C(C#N)c1ccccc1Cl (centres undefined)
inactive: HOP-18 > 100 µM | DLD-1 > 100 µM | KM-20L2 > 100 µM | RXF 631 > 100 µM | SNB-78 > 100 µM | M19-MEL > 100 µM | LXFL 529 > 100 µM | DMS-114 > 100 µM | XF498 > 100 µM

Source: ChEMBL document CHEMBL1201862, “PubChem BioAssay data set” (2004)
